Molecular target: T1, STAT3 Cys712 mutant (C712A) (Homo sapiens, UniProt P40763, C712A)
T1 construct: Full-length cDNAs were obtained from a human cDNA library by PCR; Avi-tag (N); 6His-tag (N); made in house; host or cells: Escherichia coli (pET-28a; host inferred to be the same BirA-BL21 as for wild type)
Test: SH2 binding AlphaScreen assay with Cys712 mutant recombinant STAT3
Conditions: 100 μM BENDA, 375 nM mutant STAT3, 30 min
Protocol: Point mutations were introduced into recombinant human STAT3 (rhSTAT3) by inverse PCR. We mutated Cys468, Cys542, Cys550, Cys687, and Cys712 near the SH2 domain to alanine. Inverse PCR was performed by using pBluescript II KS (+) as a template, KOD-Plus-ver. 2 (Toyobo, Osaka, Japan), and the following oligonucleotide primer set: Cys468 (forward: 5’-TCCAACATCG CTCAGATGCC AAATG-3’, reverse: 5′-GATCACCACA ACTGGCAAGG AGTGG-3′); Cys542 (forward: 5′-GAATTATTCAGGGGCTCAGATCACATGGGCTAAAT-3′, reverse: 5′-ACACCAGGTC CCAAGAGTTT CTCTGCC-3′); Cys550 (forward: 5′-GCTAAATTTG CCAAAGAAAA CATGGCTGGC-3′, reverse: 5′-CCATGTGATC TGACACCCTG AATAATTCA CACC-3′); Cys687 (forward: 5′-GGAAAGTATG CTCGGCCAGA GAGCCAG-3′, reverse: 5′-GAATGCCTCC TCCTTGGGAA TGTCAGG-3′); and Cys712 (forward: 5′-AAGTTTATCG CTGTGACACC AACGACCTGC-3′, reverse: 5′-GGTCTTCAGG TATGGGGCAG CGCTAC-3′). Inverse PCR (1 × PCR buffer, 1.5 mM MgSO4, 15 pmol 5′ primer and 3′ primer, 0.2 mM dNTPs, 50 ng STAT3 cDNA, 1 U KOD Plus) was performed under the following conditions: 2 min at 94°C, (10 s at 98°C, and 6.5 min at 68°C)×7 cycles. The amplified fragment was ligated by using Ligation High ver. 2 (Toyobo). The resultant plasmid was cloned into the HindIII/XhoI sites of modified pET-28a (+). The nucleotides coding for human mutant STAT3 in pET-28a (+) were named mutant STAT3 His-Avi-pET28a (+). […]

T1 sequence (P40763 whole entry C712A): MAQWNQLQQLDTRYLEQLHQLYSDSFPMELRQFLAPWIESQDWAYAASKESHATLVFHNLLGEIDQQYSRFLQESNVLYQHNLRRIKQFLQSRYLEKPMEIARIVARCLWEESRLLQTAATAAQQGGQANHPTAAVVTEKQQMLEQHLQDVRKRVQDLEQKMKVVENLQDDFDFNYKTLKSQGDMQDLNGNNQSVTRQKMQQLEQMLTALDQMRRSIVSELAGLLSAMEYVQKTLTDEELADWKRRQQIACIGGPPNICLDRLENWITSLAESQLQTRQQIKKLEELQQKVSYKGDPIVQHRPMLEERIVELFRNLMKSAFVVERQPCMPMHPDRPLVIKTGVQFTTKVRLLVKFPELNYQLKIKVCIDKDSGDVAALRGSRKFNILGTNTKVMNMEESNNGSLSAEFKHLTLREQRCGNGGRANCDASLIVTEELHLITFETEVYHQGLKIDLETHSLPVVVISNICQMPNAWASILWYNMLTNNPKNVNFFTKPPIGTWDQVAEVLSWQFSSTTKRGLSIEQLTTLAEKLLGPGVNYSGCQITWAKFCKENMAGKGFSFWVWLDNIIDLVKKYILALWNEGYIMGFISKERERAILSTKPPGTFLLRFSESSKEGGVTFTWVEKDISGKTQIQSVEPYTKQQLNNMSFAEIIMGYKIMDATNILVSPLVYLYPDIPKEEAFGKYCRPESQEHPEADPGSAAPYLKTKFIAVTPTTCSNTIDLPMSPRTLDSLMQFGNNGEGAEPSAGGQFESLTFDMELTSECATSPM

## Cn1c(CCCC(=O)O)nc2cc(N(CCCl)CCCl)ccc21 [BENDA, 4-{5-[bis(2-chloroethyl)amino]-1-methyl-2-benzimidazolyl} butyric acid]
  inhibition at 100 µM: 25%
